# Experimental data taken from patent publication US6436955B1, “Crystal modification A of 8-cyano-1-cyclopropyl-7-(is,6s-2,8-diazabicyclo[4.3.0]nonan-8-yl)-6-fluoro-1,4-dihydro-4-oxo-3-quinolinecarboxylic acid” (Bayer Aktiengesellschaft, priority 1998, dated 2002).
# Assay: Water absorption from the atmosphere at 95% relative atmospheric humidity
# Type: physicochemical
# Conditions: relative atmospheric humidity of 95% (saturated solution of Na2HPO4×12 H2O with sediment in water); within one day
# Text: At a relative atmospheric humidity of 95% (established using a saturated solution of Na2HPO4×12 H2O with sediment in water), the solid obtained according to this procedure absorbs approximately 17% by weight of water within one day.
# At a relative atmospheric humidity of 95% (established using a saturated solution of Na2HPO4×12 H2O with sediment in water), the solid obtained according to this procedure absorbs approximately 3% by weight of water within one day.
row,water absorbed by the solid,SMILES
1,approximately 17 % by weight,"N#Cc1c(N2C[C@@H]3CCCN[C@@H]3C2)c(F)cc2c(=O)c(C(=O)O)cn(C3CC3)c12 [Comparative Example, 8-cyano-1-cyclopropyl-7-(1S,6S-2,8-diazabicyclo[4.3.0]nonan-8-yl)-6-fluoro-1,4-dihydro-4-oxo-3-quinolinecarboxylic acid]"
2,approximately 3 % by weight,"N#Cc1c(N2C[C@@H]3CCCN[C@@H]3C2)c(F)cc2c(=O)c(C(=O)O)cn(C3CC3)c12 [Example 1, 8-cyano-1-cyclopropyl-7-(1S,6S-2,8-diazabicyclo[4.3.0]nonan-8-yl)-6-fluoro-1,4-dihydro-4-oxo-3-quinolinecarboxylic acid]"
